Assay results published in patent US8486991B2, “Enantiomerically pure phosphoindoles as HIV inhibitors” (Idenix Pharmaceuticals, Inc., priority 2006, dated 2013).
pIC50: −log10 of the molar value.

What was measured:
[1] = In vitro half-life in liver microsomes, monkey; assay type: in vitro ADME; conditions: microsomes, up to one hour, n=1
Protocol: (§1) In vitro metabolism was assessed using liver microsomes for all species. Compounds were incubated at 1 μM with liver microsomes for up to one hour. Reported half-lives greater than the total incubation time are extrapolated values. Extracts were assayed for disappearance of parent compound by LC-MS/MS detection.
(§2) Data represents one independent experiment conducted.

[2] = In vitro half-life in liver microsomes, rat; assay type: in vitro ADME; conditions: microsomes, up to one hour, longer half-lives are extrapolated, n=1
Protocol: as §1, §2

[3] = In vitro half-life in liver microsomes, dog; assay type: in vitro ADME; conditions: microsomes, up to one hour, longer half-lives are extrapolated, n=1
Protocol: as §1, §2

[4] = In vitro half-life in liver microsomes, human; assay type: in vitro ADME; conditions: microsomes, up to one hour, longer half-lives are extrapolated, n=1
Protocol: as §1, §2

CYP3A4 = CYP3A4 (Homo sapiens, UniProt P08684); experiment: Recombinant CYP450 inhibition, fluorometric, CYP3A4; assay type: in vitro ADME; parameters: from tissue; host or cells: pooled human liver microsomes
CYP3A4, sequence (P08684 whole entry, the tested form may be a part): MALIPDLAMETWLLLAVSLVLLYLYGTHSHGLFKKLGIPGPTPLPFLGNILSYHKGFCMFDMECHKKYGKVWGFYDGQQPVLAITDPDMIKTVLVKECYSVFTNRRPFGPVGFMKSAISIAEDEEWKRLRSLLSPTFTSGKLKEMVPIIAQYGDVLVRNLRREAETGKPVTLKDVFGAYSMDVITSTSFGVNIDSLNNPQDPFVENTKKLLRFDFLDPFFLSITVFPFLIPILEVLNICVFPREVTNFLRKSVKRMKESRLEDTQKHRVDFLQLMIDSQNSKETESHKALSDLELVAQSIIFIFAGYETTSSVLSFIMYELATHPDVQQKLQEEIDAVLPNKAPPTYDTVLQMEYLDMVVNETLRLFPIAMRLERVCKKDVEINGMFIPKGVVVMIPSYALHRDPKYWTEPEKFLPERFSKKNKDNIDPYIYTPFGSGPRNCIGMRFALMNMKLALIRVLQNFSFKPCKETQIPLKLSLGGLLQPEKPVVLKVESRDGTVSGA
Protocol: (§3) Compounds were assayed using recombinant human microsomal proteins with fluorometric substrates. Signal was measured with a Fusion plate reader utilizing the appropriate excitation and emission wavelength set to detect the specific metabolite: […]

[5] = system: CYP3A4 (activation of PXR in DPX2 cells); experiment: CYP3A4 induction screen in DPX2 cells; assay type: cell-based, human; conditions: extent compared with rifampicine, mifepristone, androstanol
Description: The potential for in vitro induction of CYP3A4 was screened in DPX2 cells. The DPX2 cell line is a derivative of a human hepatocellular carcinoma cell line (HepG2) transformed with the human pregnane x receptor (PXR) and a reporter gene vector containing the enhancer region of CYP3A4. The potential for in vitro induction of CYP1A2 was screened in CYP1A2-DRE cells. The CYP1A2-DRE cell line is a stably transformed HepG2 cells with dioxin response elements (DRE) and reporter gene containing CYP1A2 promoter elements. The extent of CYP3A4 induction was determined by comparing the activation of PXR obtained with test article to that obtained with rifampicine (potent inducer), mifepristone (moderate inducer) and androstanol (weak inducer). The extent of CYP1A2 induction was determined by comparing the activation of the aryl hydrocarbon receptor (AhR) obtained with test article to that obtained with TCDD (potent inducer), omeprazole (moderate inducer), and 2-acetylaminofluorene (weak inducer).

CYP2C9 = CYP2C9 (Homo sapiens, UniProt P11712); experiment: Recombinant CYP450 inhibition, Luciferin-H, CYP2C9; assay type: in vitro ADME; parameters: from tissue; host or cells: pooled human liver microsomes; conditions: highest concentration tested 10 μM
CYP2C9, sequence (P11712 whole entry, the tested form may be a part): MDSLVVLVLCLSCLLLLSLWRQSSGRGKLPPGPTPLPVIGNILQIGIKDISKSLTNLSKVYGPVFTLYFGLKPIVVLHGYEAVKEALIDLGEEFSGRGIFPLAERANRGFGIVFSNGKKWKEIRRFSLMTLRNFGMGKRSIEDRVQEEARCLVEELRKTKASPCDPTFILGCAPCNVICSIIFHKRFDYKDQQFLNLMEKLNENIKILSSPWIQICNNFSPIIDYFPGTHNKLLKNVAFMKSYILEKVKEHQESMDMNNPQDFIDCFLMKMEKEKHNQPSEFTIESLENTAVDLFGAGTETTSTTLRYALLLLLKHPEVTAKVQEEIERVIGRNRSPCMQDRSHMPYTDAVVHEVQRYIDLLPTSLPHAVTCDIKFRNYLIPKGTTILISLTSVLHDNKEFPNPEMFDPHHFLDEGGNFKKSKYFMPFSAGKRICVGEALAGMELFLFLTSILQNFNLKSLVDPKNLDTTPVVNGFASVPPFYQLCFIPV
Protocol: CYP2C9 inhibition was performed by incubating a luminogenic CYP450 substrate Luciferin-H with CYP2C9 and an NADPH regeneration system. Luminescence measured using a Fusion plate reader.

CYP2D6 = CYP2D6 (Homo sapiens, UniProt P10635); experiment: Recombinant CYP450 inhibition, fluorometric, CYP2D6; assay type: in vitro ADME; parameters: from tissue; host or cells: pooled human liver microsomes; conditions: recombinant enzyme, read-out: percentage of inhibition at the highest concentration tested, CYP2D6
CYP2D6, sequence (P10635 whole entry): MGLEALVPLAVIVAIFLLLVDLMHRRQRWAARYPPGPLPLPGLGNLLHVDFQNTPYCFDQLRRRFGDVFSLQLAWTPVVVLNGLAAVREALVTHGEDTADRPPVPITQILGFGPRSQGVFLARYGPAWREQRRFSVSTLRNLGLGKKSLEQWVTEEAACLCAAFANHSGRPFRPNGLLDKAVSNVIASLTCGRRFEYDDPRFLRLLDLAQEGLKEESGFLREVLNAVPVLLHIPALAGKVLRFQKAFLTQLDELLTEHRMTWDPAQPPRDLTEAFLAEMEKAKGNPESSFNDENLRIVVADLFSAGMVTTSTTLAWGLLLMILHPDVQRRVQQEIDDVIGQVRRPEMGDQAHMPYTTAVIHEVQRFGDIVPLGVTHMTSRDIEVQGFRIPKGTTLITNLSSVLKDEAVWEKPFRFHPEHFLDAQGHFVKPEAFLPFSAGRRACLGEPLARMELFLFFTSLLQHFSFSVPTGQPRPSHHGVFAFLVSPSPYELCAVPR
Protocol: as §3

SMILES | half-life at 1 μM [1] [h] | half-life at 1 μM [2] [h] | half-life at 1 μM [3] [h] | half-life at 1 μM [4] [h] | pIC50 (CYP3A4) | Induction, DPX2 (CYP3A4) [5] | pIC50 (CYP2C9) | inhibition at 10 µM (CYP2D6) [%]
COP(=O)(c1cc(C)cc(/C=C/C#N)c1)c1c(C(N)=O)[nH]c2ccc(Cl)c(F)c12 (racemic) [rac (I + II), 5-chloro-4-fluoro-3-[methyl 3-((E)-2-cyanovinyl)-5-methylphenyl]phosphinoyl-1H-indole-2-carboxamide] | 0.307 | 2.43 | 4.78 | 1.92 | 5.79 | – | – | –
COP(=O)(c1cc(C)cc(/C=C/C#N)c1)c1c(C(N)=O)[nH]c2ccc(Cl)cc12 (racemic) [rac (III + IV), 5-chloro-3-[methyl 3-((E)-2-cyanovinyl)-5-methylphenyl]phosphinoyl-1H-indole-2-carboxamide] | 0.272 | 1.75 | 4.28 | 1.52 | 5.64 | Moderate (n = 1) | 5.22 | 16 to 23
